Data published in patent publication US6764682B1, “Adjuvant compositions containing more than one adjuvant” (priority 1994, dated 2004).

Columns and labels:
Assay type in all cases: in vivo
[1] = system: peptide-specific IgG antibodies; assay: Guinea pig antibody responses to synthetic peptides formulated with different adjuvants (peptide-specific ELISA); conditions: mean titer of three guinea pigs, three injections
[2] = system: CLTB-56; assay: Guinea pig antibody response to CLTB-36 in different adjuvants, ELISA titer against CLTB-56; conditions: guinea pigs (n = 3) immunized with 20 μg CLTB-36 in the named adjuvant; boosters at 2, 4 and 6 weeks
[3] = system: CLTB-36; assay: Guinea pig antibody response to CLTB-36 in different adjuvants, ELISA titer against CLTB-36; conditions: guinea pigs (n = 3) immunized with 20 μg CLTB-36 in the named adjuvant; boosters at 2, 4 and 6 weeks
[4] = adjuvant BAY R1005, 100 μg peptide per dose (CLTB-36 20 μg)
[5] = adjuvant CFA, 100 μg peptide per dose (CLTB-36 20 μg)
[6] = adjuvant OTH, 100 μg peptide per dose (CLTB-36 20 μg)
[7] = adjuvant TPC, 100 μg peptide per dose (CLTB-36 20 μg)
[8] = adjuvant alum, 100 μg peptide per dose (CLTB-36 20 μg)
[9] = peptide in PBS (no adjuvant), 100 μg peptide per dose (CLTB-36 20 μg)
[10] = Table 3, adjuvant BAY R1005 + alum, 100 μg peptide per dose

| Compound | Peptide-Specific Antibody Titre [1, 4] | Peptide-Specific Antibody Titre [1, 5] | Peptide-Specific Antibody Titre [1, 6] | Peptide-Specific Antibody Titre [1, 7] | Peptide-Specific Antibody Titre [1, 8] | Peptide-Specific Antibody Titre [1, 9] | Peptide-Specific Antibody Titre [1, 10] | Peptide-Specific Antibody Titre ([1]; Table 3, adjuvant BAY R1005, 100 μg peptide per dose) | Peptide-Specific Antibody Titre ([1]; Table 3, adjuvant alum, 100 μg peptide per dose) | Average titers against CLTB-56 [2] | Average titers against CLTB-36 [3] |
| --- | --- | --- | --- | --- | --- | --- | --- | --- | --- | --- | --- |
| GPKEPFRDYVDRFYKNRKRIHIGPGRAFYTTKN [CLTB-36] | 72,800 | 256,000 | 6,400 | 3,200 | 10,000 | 400 | – | – | – | – | – |
| PIVNKQSCSISNIETVIEFQQ [RSV-FND2] | 10,000 | 12,800 | 6,400 | 3,200 | 7,800 | 400 | 25,600 | 10,000 | 7,800 | – | – |
| CSNNPTCWAICKRIPNKKPGKKT [RSV-G2] | 3,200 | 128,000 | – | 1,600 | 31,500 | 1,280 | – | – | – | – | – |
| GPKEPFRDYVDRFYKNTRQSTPIGLGQALYTTRG [CLTB-76] | 45,833 | 625,000 | 6,400 | 3,200 | 9,166 | 1,833 | – | – | – | – | – |
| QSYSIMSIIKEEVLAYAVQLPLPLYGVIDTP [RSV-F] | 3,850 | 6,400 | 3,200 | 1,600 | 32,000 | 500 | 128,000 | – | – | – | – |
| PQPGPQPPQPPQPQPEAPAPQPPC [69K-P1] | 32,500 | 10,000 | – | 1,600 | 32,500 | 800 | – | – | – | – | – |
| TVGKKTYQVEACCSNLSYVKFGM [TBP2-3] | 32,500 | 12,500 | – | – | 43,333 | 400 | – | – | – | – | – |
| TKQRQNKPPSKPNNDFHFEVFNFVPC [RSV-G1] | 31,500 | 315,000 | – | 6,400 | 128,000 | 1,600 | – | – | – | – | – |
| PDPGDLVEYIMNYTGNQQSRWGLGSPNCHGPDWASPVCQRHSP [RV-EP27] | – | 128,000 | 25,600 | – | 12,800 | 400 | – | – | – | – | – |
| IKEIDESESEDYAKEGFRAP [PSP-AA] | – | 12,500 | – | – | 1,600 | 200 | – | – | – | – | – |
| NQITSALSTQQEFRDLKKYLPSKDKSVVSLQDRAC [HIBP1-5E] | 32,500 | 312,500 | – | 1,600 | 8,333 | 200 | – | – | – | – | – |
| GPKEPFRDYVDRFYKNTRKRIRIQRGGRAFVTIGK [CLTB-72] | 45,800 | 312,500 | 6,400 | 3,200 | 37,500 | 2,333 | – | – | – | – | – |
| CC(=O)O.CCCCCCCCCCCCCCCCCCN(C(=O)CCCCCCCCCCC)[C@@H]1O[C@H](CO)[C@@H](O)[C@H](O)[C@H]1NC(=O)[C@@H](N)CC(C)C [BAY R1005, N-(2-deoxy-2-L-leucylamino-β-D-glucopyranosyl)-N-octadecyldodecanamide acetate] | – | – | – | – | – | – | – | – | – | 4,333 | 62,500 |
